# Measured values reported in PMC11219871, “Epigenetic-based differentiation therapy for Acute Myeloid Leukemia” (Nature Communications, 2024).
# pIC50: −log10 of the molar value. Values joined by “and” are separate entries in the source; they are usually repeats but may differ in a detail not shown here. Equal values may be shown once. Read-outs that look alike come from different tables or passages of the source.
# Experiments:
# DNMT1 = DNMT1 (Homo sapiens, UniProt P26358); assay: Epigenetic panel (BPS Bioscience); DNMT1 TR-FRET IC50; type: biochemical
# DNMT1, sequence (P26358 whole entry): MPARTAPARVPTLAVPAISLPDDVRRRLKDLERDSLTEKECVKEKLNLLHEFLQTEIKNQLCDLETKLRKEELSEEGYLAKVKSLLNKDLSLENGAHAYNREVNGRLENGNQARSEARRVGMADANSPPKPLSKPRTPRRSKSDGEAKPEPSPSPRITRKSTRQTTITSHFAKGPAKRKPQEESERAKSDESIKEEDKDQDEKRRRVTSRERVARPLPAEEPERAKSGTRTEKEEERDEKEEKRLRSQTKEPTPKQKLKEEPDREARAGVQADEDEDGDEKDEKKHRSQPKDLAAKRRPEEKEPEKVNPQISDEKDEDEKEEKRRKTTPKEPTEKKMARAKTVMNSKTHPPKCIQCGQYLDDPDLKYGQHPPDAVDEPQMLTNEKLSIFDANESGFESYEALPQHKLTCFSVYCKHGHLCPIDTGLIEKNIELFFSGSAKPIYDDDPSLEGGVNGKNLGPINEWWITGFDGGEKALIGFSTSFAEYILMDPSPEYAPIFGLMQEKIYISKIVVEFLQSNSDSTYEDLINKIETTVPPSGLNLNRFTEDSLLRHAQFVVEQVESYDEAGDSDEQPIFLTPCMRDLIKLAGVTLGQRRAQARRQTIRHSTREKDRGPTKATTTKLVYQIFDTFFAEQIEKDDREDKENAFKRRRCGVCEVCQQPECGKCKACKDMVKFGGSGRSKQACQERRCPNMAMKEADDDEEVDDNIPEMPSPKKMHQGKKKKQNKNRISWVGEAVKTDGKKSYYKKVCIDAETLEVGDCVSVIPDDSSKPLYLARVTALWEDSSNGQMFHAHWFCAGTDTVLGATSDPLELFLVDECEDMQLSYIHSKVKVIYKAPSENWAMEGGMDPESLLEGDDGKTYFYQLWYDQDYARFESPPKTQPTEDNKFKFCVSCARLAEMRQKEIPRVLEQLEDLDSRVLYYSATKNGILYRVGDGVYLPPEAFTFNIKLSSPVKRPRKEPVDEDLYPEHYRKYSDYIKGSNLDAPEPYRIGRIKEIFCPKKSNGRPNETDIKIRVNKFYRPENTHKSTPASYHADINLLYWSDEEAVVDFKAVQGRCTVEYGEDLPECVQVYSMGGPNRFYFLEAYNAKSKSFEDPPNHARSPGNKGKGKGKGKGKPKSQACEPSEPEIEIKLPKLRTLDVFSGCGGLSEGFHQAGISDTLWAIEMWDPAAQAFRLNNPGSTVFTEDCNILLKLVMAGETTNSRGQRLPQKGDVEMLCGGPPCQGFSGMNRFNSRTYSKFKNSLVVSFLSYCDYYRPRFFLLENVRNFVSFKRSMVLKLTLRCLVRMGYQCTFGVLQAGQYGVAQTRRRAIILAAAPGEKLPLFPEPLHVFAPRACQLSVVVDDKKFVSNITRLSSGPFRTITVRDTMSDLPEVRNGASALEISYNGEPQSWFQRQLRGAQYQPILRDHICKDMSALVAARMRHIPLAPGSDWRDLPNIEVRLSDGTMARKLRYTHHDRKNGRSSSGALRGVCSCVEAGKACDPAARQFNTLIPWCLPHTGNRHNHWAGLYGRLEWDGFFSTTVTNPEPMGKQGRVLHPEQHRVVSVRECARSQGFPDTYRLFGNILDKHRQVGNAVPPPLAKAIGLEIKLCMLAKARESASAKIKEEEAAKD
# Protocol: DNMT1 and G9a IC50 values were measured using time-resolved fluorescence energy transfer assays, as described previously[18],[25],[26].
# Binding experiments were performed in duplicate at a concentration of 10 μM.
# HDAC2 = HDAC2 (Homo sapiens, UniProt Q92769); assay: HDAC enzymatic assay, fluorescence-labeled substrate; type: biochemical
# HDAC2, sequence (Q92769 whole entry): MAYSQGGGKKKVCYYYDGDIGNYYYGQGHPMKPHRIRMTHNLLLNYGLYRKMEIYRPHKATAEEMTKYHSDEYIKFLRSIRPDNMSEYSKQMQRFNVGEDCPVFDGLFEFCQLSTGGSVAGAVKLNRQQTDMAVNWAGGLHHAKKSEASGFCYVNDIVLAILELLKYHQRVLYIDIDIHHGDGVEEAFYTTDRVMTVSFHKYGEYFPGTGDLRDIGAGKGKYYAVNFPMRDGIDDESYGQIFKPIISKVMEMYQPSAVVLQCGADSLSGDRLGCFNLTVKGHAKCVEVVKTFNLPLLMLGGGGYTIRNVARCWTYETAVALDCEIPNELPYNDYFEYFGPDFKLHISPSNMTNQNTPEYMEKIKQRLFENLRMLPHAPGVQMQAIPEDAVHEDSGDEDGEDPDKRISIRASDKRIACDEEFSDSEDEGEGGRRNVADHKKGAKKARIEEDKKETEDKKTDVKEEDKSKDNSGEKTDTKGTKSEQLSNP
# HDAC11 = target: T1, HDAC11 (Homo sapiens, UniProt Q96DB2); assay: HDAC11 Eurofins assay; type: biochemical
# T1 sequence (Q96DB2 1-347): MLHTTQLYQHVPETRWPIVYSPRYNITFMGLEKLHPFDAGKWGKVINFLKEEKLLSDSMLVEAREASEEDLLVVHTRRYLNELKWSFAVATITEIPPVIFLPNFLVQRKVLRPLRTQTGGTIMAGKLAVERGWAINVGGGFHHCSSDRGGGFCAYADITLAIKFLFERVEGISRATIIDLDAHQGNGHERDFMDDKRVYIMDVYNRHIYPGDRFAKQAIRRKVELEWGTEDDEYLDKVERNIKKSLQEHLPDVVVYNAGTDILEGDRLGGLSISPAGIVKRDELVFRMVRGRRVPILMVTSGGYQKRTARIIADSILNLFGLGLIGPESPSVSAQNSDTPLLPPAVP
# Rag2-/-γc-/- mice = assay: Toxicity assay: hematological and liver parameters, liver histology; type: in vivo, mouse; details: for ALT (Counts (U/L)) / AST (Counts (U/L)) / Bilirubin (Counts (mg/dl)) / HDL (Counts (mmol/l)) / LCLC3 (Counts (mmol/l)) / UREA (Counts (mg/dl)) / Hematocrit (Counts (%)) / Hemoglobin (Counts (g/dl)) / PLT (Counts (K/O)) / RBC (Counts (K/O)) / WBC (Counts (K/O)): healthy Rag2-/-γc-/- mice, individual mice, 10 mg/kg; for ALT (Counts (U/L)) / AST (Counts (U/L)) / Bilirubin (Counts (mg/dl)) / HDL (Counts (mmol/l)) / LCLC3 (Counts (mmol/l)) / UREA (Counts (mg/dl)): 10 mg/kg i.p. daily for 3 weeks then 7-day washout; for Hematocrit (Counts (%)) / Hemoglobin (Counts (g/dl)) / PLT (Counts (K/O)) / RBC (Counts (K/O)) / WBC (Counts (K/O)): 10 mg/kg i.p. daily for 3 weeks
# Protocol: After treating Rag2^−/−γc^−/− mice with i.p. […] Hematological and liver parameters were measured.
# Hematological parameters, including white blood cells, red blood cells, platelet count, hemoglobin and hematocrit, were measured on a Hemavet Hematology Analyzer (Drew Scientific). Liver enzymes (albumin, alkaline phosphatase, aspartate transaminase, alanine transaminase), cholesterol, bilirubin, urea and bile acid levels were analyzed from mice serum using a C311 Cobas Analyzer (Roche Diagnostics).
# Mice livers were fixed in paraformaldehyde at 4% for 6–8 h, washed twice with saline solution and stored in 70% ethanol. Samples were included in paraffin, and 3-µm serial sections were cut, deparaffinated, and stained with hematoxylin–eosin.
# [1] = tested on: MOLM-13 i.v. in BALB/cA Rag2-/-γc-/- mice; assay: Intravenous xenograft model (survival, CD11b in blood, body weight); type: in vivo, mouse
smiles,measurement,setting,value
"COc1cc2nc(-c3ccc(C)o3)cc(NCC3CCN(c4ncc(C(=O)NO)cn4)CC3)c2cc1OC [CM-444, 2-[4-[[[6,7-dimethoxy-2-(5-methyl-2-furyl)-4-quinolyl]amino]methyl]-1-piperidyl]pyrimidine-5-carbohydroxamic acid]",inhibition at 10 µM,DNMT1; 10 µM,96%
same,pIC50,"DNMT1; as printed in Fig. 1B, read-out: IC50",5.66
same,pIC50,DNMT1; read-out: DNMT1 IC50,5.67
same,pIC50,HDAC2,7.29
same,inhibition at 10 µM,"HDAC2; 10 µM, source data of Fig. 1B",90%
same,pIC50,HDAC11,6.85
same,tolerability,"Rag2-/-γc-/- mice; 10 mg/kg i.p. daily over 3 weeks, 1-week washout, Rag2-/-γc-/- mice",well tolerated
same,ALT (Counts (U/L)),Rag2-/-γc-/- mice; Week 3,11.5 U/L and 2 U/L and 10.5 U/L
same,AST (Counts (U/L)),Rag2-/-γc-/- mice; Week 3,32 U/L and 193 U/L and 55.5 U/L and 92 U/L
same,Bilirubin (Counts (mg/dl)),Rag2-/-γc-/- mice; Week 3,0 mg/dl (2×) and 0.15 mg/dl and 0.05 mg/dl
same,HDL (Counts (mmol/l)),Rag2-/-γc-/- mice; Week 3,1.85 mmol/l (2×) and 0.7 mmol/l and 2.75 mmol/l
same,LCLC3 (Counts (mmol/l)),Rag2-/-γc-/- mice; Week 3,0.15 mmol/l and 0.25 mmol/l (2×) and 0.1 mmol/l
same,UREA (Counts (mg/dl)),Rag2-/-γc-/- mice; Week 3,11.5 mg/dL and 19.7 mg/dL and 22.3 mg/dL and 21.65 mg/dL
same,ALT (Counts (U/L)),Rag2-/-γc-/- mice; Week 4,19.5 U/L and 11.7 U/L and 32.4 U/L and 21 U/L
same,AST (Counts (U/L)),Rag2-/-γc-/- mice; Week 4,128.4 U/L and 47.1 U/L and 73.2 U/L and 160.2 U/L
same,Bilirubin (Counts (mg/dl)),Rag2-/-γc-/- mice; Week 4,0.09 mg/dl (2×) and 0.06 mg/dl and 0.12 mg/dl
same,HDL (Counts (mmol/l)),Rag2-/-γc-/- mice; Week 4,2.61 mmol/l (2×) and 2.16 mmol/l and 2.58 mmol/l
same,LCLC3 (Counts (mmol/l)),Rag2-/-γc-/- mice; Week 4,0.3 mmol/l and 0.21 mmol/l (2×) and 0.24 mmol/l
same,UREA (Counts (mg/dl)),Rag2-/-γc-/- mice; Week 4,27.78 mg/dL and 27.48 mg/dL and 30.3 mg/dL and 24.12 mg/dL
same,Hematocrit (Counts (%)),Rag2-/-γc-/- mice; 7d Washout,52.1% and 56.9% and 53.3% and 53.1%
same,Hemoglobin (Counts (g/dl)),Rag2-/-γc-/- mice; 7d Washout,17.9 g/dL and 18 g/dL and 17.7 g/dL and 17.4 g/dL
same,PLT (Counts (K/O)),Rag2-/-γc-/- mice; 7d Washout,1470 K/O and 1489 K/O and 1608 K/O and 1482 K/O
same,RBC (Counts (K/O)),Rag2-/-γc-/- mice; 7d Washout,10.26 K/O and 10.79 K/O and 10.39 K/O and 10.19 K/O
same,WBC (Counts (K/O)),Rag2-/-γc-/- mice; 7d Washout,5.36 K/O and 7.2 K/O and 1.48 K/O and 3.02 K/O
same,Hematocrit (Counts (%)),Rag2-/-γc-/- mice; Week 1,47.7% and 44.8% and 42.1% and 46%
same,Hemoglobin (Counts (g/dl)),Rag2-/-γc-/- mice; Week 1,18 g/dL and 18.2 g/dL and 17.7 g/dL and 17.8 g/dL
same,PLT (Counts (K/O)),Rag2-/-γc-/- mice; Week 1,906 K/O and 830 K/O and 622 K/O and 877 K/O
same,RBC (Counts (K/O)),Rag2-/-γc-/- mice; Week 1,10.04 K/O and 9.45 K/O and 9.05 K/O and 9.73 K/O
same,WBC (Counts (K/O)),Rag2-/-γc-/- mice; Week 1,3.7 K/O and 3.24 K/O and 5.4 K/O and 2.32 K/O
same,Hematocrit (Counts (%)),Rag2-/-γc-/- mice; Week 2,50.2% and 53.9% and 53.4% and 41.4%
same,Hemoglobin (Counts (g/dl)),Rag2-/-γc-/- mice; Week 2,17.9 g/dL and 18.4 g/dL and 17.5 g/dL and 15.1 g/dL
same,PLT (Counts (K/O)),Rag2-/-γc-/- mice; Week 2,1887 K/O and 1805 K/O and 1778 K/O and 1467 K/O
same,RBC (Counts (K/O)),Rag2-/-γc-/- mice; Week 2,10.43 K/O and 10.72 K/O and 10.28 K/O and 8.62 K/O
same,WBC (Counts (K/O)),Rag2-/-γc-/- mice; Week 2,5.84 K/O and 4.8 K/O and 3.6 K/O and 7.26 K/O
same,Hematocrit (Counts (%)),Rag2-/-γc-/- mice; Week 3,43.7% and 49.1% and 49.8% and 51%
same,Hemoglobin (Counts (g/dl)),Rag2-/-γc-/- mice; Week 3,11.4 g/dL and 17.4 g/dL and 17.9 g/dL and 18.3 g/dL
same,PLT (Counts (K/O)),Rag2-/-γc-/- mice; Week 3,730 K/O and 1171 K/O and 1358 K/O and 1362 K/O
same,RBC (Counts (K/O)),Rag2-/-γc-/- mice; Week 3,8.57 K/O and 10.02 K/O and 10.36 K/O and 10.9 K/O
same,WBC (Counts (K/O)),Rag2-/-γc-/- mice; Week 3,1.16 K/O and 8.64 K/O and 6.22 K/O and 6.1 K/O
same,CD11b in blood samples,"[1]; MOLM-13 i.v., 10 mg/kg i.p.",significant induction of CD11b
same,CD11b (%),"[1]; blood samples of mice engrafted intravenously with MOLM-13 cells, individual mice",49.5% and 13.9% and 12.3% and 14% and 28.6% and 15.1% and 19.3% and 15% and 42.6% and 31.9% and 18% and 12.6%
